From patent US8785501B2 (Duquesne University of the Holy Spirit, priority 2009, dated 2014)

System: mammary estrogen-regulated genes (lactoferrin and progesterone receptor)
Assay: Expression of estrogen-regulated genes in mammary tissue of ovariectomized FVB/n mice
Assay type: in vivo, mouse
Conditions: FVB/n OVX mice, n=4, data not shown; versus control (vehicle) and melatonin alone
Excerpt: Previous studies with melatonin or tamoxifen alone were done in MMTV/neu mice. MMTV/neu mice spontaneously develop HER2/neu mammary cancer beginning at 5 months of […] and have a maximal incidence of >90% after 14 months of age. In this mouse model, tamoxifen and melatonin alone can influence mammary tumor development, growth and/or metastatic progression.

CC/C(=C(\c1ccccc1)c1ccc(OCCN(C)C)cc1)c1ccccc1 [tamoxifen]
progesterone receptor (PR) RNA levels in mammary tissue: significantly different than the control
